Assays:
L-selectin = assay: ELISA: inhibition of L-selectin-IgG chimera binding to 2,3 sLe^x glycolipid; parameters: species or system human; details: for inhibition of L-selectin binding to 2,3 sLe^x glycolipid: FIG. 5 and FIG. 6, result in words; for IC50: inhibition of binding to 2,3 sLex glycolipid
Source text: (§1) An ELISA assay is preferably used that employs recombinant fusion proteins composed of extracellular portions of the human selectins joined to human immunoglobulin heavy chain CH3, CH2, and hinge regions. See, for example, Walz et al., Science (1990) 250:1132; Aruffo et al., Cell (1991) 67:35; Aruffo et al., Proc. Natl. Acad. Sci. USA. (1992) 89:2292. The assay is well known in the art, and generally consists of the following three steps:
(§2) I. 2,3 sLe^x glycolipid (25 picomole/well) was transferred into microtiter wells as solutions and then evaporated off. Excess, which remained unattached, was washed off with water. The wells were then blocked with 5% BSA at room temperature for an hour and then washed with PBS containing 1 mM calcium.
(§3) II. Preparation of "multivalent" receptor of the Selectin-lgG chimera was carried out by combining the respective chimera (1 μg/mL) with biotin labelled goat F(ab')2 anti-human IgG (Fc specific) and streptavidin-alkaline phosphatase diluted 1:1000 in 1% BSA-PBS (1 mM calcium) and incubating at 37° C. for 15 min. This allowed the soluble multivalent receptor complex to form. III. Potential inhibitors such as the compounds of formula I or II were allowed to react with the soluble receptor at 37° C. for 45 min. This test assumes that optimal binding, between the soluble phase receptor complex and the inhibitor (non natural ligand), would have occurred within this time frame. This solution was then placed in the microtiter wells that were prepared in step I. The plate was incubated at 37° C. for 45 minutes to allow the soluble receptor to bind to its natural ligand. In the presence of a strong inhibitor only a few receptors should be free to bind to the microtiter plate coated with the natural ligand.
(§4) The positive control is the signal produced by the soluble receptor when it is allowed to react with 2,3 sLe^x glycolipid in the microtiter wells in the absence of any inhibitor. This positive control was considered 100% binding. The signal produced by the receptor that had been previously treated with an inhibitor (recorded as O.D.), was divided by the signal produced by the positive control and multiplied by 100 to calculate the % receptor bound to the well in the presence of the inhibitor. The reciprocal of this number is the % inhibition.
as §1, with “was employed” for “is preferably used”, “uses” for “employs”, “USA” for “USA.”
(§5) II. Preparation of "multivalent" receptor of the Selectin-IgG chimera was carried out by combining the respective chimera 1 μg/ml) with biotin labelled goat F(ab')2 anti-human IgG (Fc specific) and streptavidin-alkaline phosphatase diluted 1:1000 in 1% BSA-PBS (1 mM calcium) and incubating at 37° C. for 15 min. This allowed the soluble multivalent receptor complex to form.
(§6) III. Potential inhibitors such as compounds of formula I or II were allowed to react with the soluble receptor at 37° C. for 45 min. This test assumes that optimal binding, between the soluble phase receptor complex and the inhibitor (non natural ligand), would have occurred within this time frame. This solution was then placed in the microtiter wells that were prepared in step I. The plate was incubated at 37° C. for 45 minutes to allow the soluble receptor to bind to its natural ligand. In the presence of a strong inhibitor only a few receptors should be free to bind to the microtiter plate coated with the natural ligand.
(§7) The positive control is the signal produced by the soluble receptor when it is allowed to react with 2,3 sLe^x glycolipid in the microtiter wells in the absence of any inhibitor. This was considered 100% binding. […]

E-selectin = assay: ELISA: inhibition of E-selectin-IgG chimera binding to 2,3 sLe^x glycolipid; parameters: species or system human; details: for IC50: inhibition of binding to 2,3 sLex glycolipid
Source text: as §1, §2, §3, §4
as §1, with “was employed” for “is preferably used”, “uses” for “employs”, “USA” for “USA.”
as §5, §6, §7

P-selectin [1] = assay: ELISA: inhibition of P-selectin-IgG chimera binding to 2,3 sLe^x glycolipid; parameters: species or system human; details: inhibition of binding to 2,3 sLex glycolipid
Source text: as §1, §2, §3, §4
as §1, with “was employed” for “is preferably used”, “uses” for “employs”, “USA” for “USA.”
as §5, §6, §7

P-selectin [2] = assay: Flow cytometric assay: inhibition of P-selectin-IgG binding to HL-60 cells; format: cell-based, human; parameters: unit of the concentration uncertain
Protocol: The interaction of P-selectin and its cellular ligand was studied using a flow cytometric assay (Erbe, D. V. et al., J. Cell Biol. (1993) 120:1227). HL60 cells (maintained in high glucose DME plus 10% Hyclone FBS) were used in this assay. Before staining with P-selectin-IgG the cells were preincubated in Dulbecco's PBS/1% BSA/0.1% sodium azide/1% normal rabbit serum (staining medium) for 30-60 mins on ice. After this initial incubation, 1 μg of P-selectin-IgG was added to 100 μl aliquots of 10^6 cells and incubated for 30-60 mins on ice. The cells were when washed with staining medium and resuspended in 100 μl of staining medium to which was added 2 μl of a phycoerythrin-conjugated F(ab')^2 goat anti-human IgG (Fc specific). The cells were incubated for 15-30 mins on ice, washed twice with staining medium, and resuspended in 0.5 ml of staining medium before flow cytometric analysis on a FACScan (Becton Dickinson & Co., Mountain View, Calif.). To determine that the staining was an interaction of P-selectin with its ligand, the staining was also done in the presence of 10 mM EGTA. To determine the protease sensitivity and the requirement for sialic acid of this interaction, HL-60 cells in D-PBS and 1% BSA were incubated with either trypsin or Arthrobacter or Clostridium sialidases at 37° C. before resuspending in staining medium. To examine the ability of various carbohydrates to inhibit staining, 50 μg/ml fucoidin (Sigma Immunochemicals, St. Louis, Mo.), 50 μg/ml dextran sulfate (Pharmacia Fine Chemicals, Piscataway, N.J.), 10 mg/ml mannose-1-phosphate (Sigma Immunochemicals), or 10 mg/ml mannose-6-phosphate (Sigma Immunochemicals) was added to cells immediately before the addition of the P-selectin chimera. Each carbohydrate was then present until the cells were washed before the addition of the second stage antibody. A potential complication of this FACS assay arose from the use of selectin-IgG chimeras to stain cells which bear human IgG Fc receptors (FcγR; Fanger, M. W., et al., Immunol. Today (1989) 10:92). Adding rabbit IgG (in the form of normal rabbit serum) to the assay medium blocked this binding in most cases.

| SMILES | inhibition of L-selectin binding to 2,3 sLe^x glycolipid (L-selectin) | inhibition of E-selectin binding to 2,3 sLe^x glycolipid (E-selectin; FIG. 4, result in words) | IC50 (E-selectin) | IC50 (L-selectin) | IC50 (P-selectin [1]) | Inhibition (%) of P-selectin-IgG binding to HL-60 cells (P-selectin [2]; 10 (unit uncertain)) | Inhibition (%) of P-selectin-IgG binding to HL-60 cells (P-selectin [2]; 100 (unit uncertain)) | Inhibition (%) of P-selectin-IgG binding to HL-60 cells (P-selectin [2]; 200 (unit uncertain)) |
| --- | --- | --- | --- | --- | --- | --- | --- | --- |
| CC(=O)N[C@H]1[C@H]([C@H](O)[C@H](O)CO)OC(OCCCCCCOC2O[C@@H](C)[C@@H](O)[C@@H](O)[C@@H]2O)(C(=O)O)C[C@@H]1O (stereo partly drawn) [Compound 14, O-Hexamethylene linked α,β-NeuNAc and α,β-L-Fucopyranose] | inhibit L-selectin binding in a concentration dependent manner | inhibit E-selectin binding to 2,3 sLe^x glycolipid |  |  |  |  |  |  |
| CC(=O)N[C@H]1[C@H]([C@H](O)[C@H](O)CO)OC(OCCCCCCOC2O[C@@H](C)[C@@H](O)[C@@H](O)[C@@H]2O)(C(=O)O)C[C@@H]1O (stereo partly drawn) [Compound 15, O-Hexamethylene linked α,β-NeuNAc and α,β-L-Fucopyranose] | blocks L-selectin binding at concentrations lower than 7 and 14 |  |  |  |  |  |  |  |
| CC(=O)NC1C(O)CC(OC2C(O)C(CO)OC(OCCOC3OC(C)C(O)C(O)C3O)C2O)(C(=O)O)OC1C(O)C(O)CO [Compound 28, [O-(α-L-fucopyranosyl)-ethyl]3-O-(α-Neu5Ac)-β-D-galactopyranoside] |  |  | > 4 mM |  |  |  |  |  |
| CCCOCC(CO[C@@H]1O[C@H](CO)[C@H](O)[C@H](OC(C)C(=O)O)[C@H]1O)O[C@@H]1O[C@@H](C)[C@@H](O)[C@@H](O)[C@@H]1O (stereo partly drawn) [Compound 32, 1-O-(3-O-α-carboxyethyl-β-D-galactopyranosyl)-2-O-(α-L-fucopyranosyl)-3-O-(n-propyl)-propane] |  |  | 2 mM | ≤ 4 mM |  |  |  |  |
| C[C@@H]1O[C@@H](CCOc2ccc3cc(C(=O)O)ccc3c2)[C@@H](O)[C@H](O)[C@@H]1O [Compound 51, 1-Deoxy-1-α-(2-Carboxy-Naphthyl-6-Oxyethyl)-L-Fucose] |  |  | < 0.5 mM | < 1 mM | < 0.5 mM |  |  |  |
| COc1ccc(-c2c(C(=O)O)oc3cc(OCC[C@@H]4O[C@@H](C)[C@@H](O)[C@@H](O)[C@@H]4O)cc(O)c3c2=O)cc1 [Compound 54, 2-Carboxy-5-Hydroxy-7-(1-Deoxy-1-α-Fucosyl-Ethyleneoxy)-4-Methoxy Isoflavone] |  |  | < 0.5 mM | > 4 mM | < 0.5 mM |  |  |  |
| C[C@@H]1O[C@@H](CCOc2ccc3cc(OCC[C@@H]4O[C@@H](C)[C@@H](O)[C@@H](O)[C@@H]4O)c(C(=O)O)cc3c2)[C@@H](O)[C@H](O)[C@@H]1O [Compound 57, 3,7-Di-(1-Deoxy-1-α-Fucosyl-Ethyleneoxy)-2-Naphthoic Acid] |  |  | > 4 mM | ~2 mM | < 0.5 mM |  |  |  |
| C[C@@H]1O[C@@H](CCOc2cc3c(OCC[C@@H]4O[C@@H](C)[C@@H](O)[C@@H](O)[C@@H]4O)cccc3cc2C(=O)O)[C@@H](O)[C@H](O)[C@@H]1O [Compound 58, 3,5-Di-(1-Deoxy-1-α-Fucosyl-Ethyleneoxy)-2-Naphthoic Acid] |  |  | > 4 mM | ~4 mM | 2 mM |  |  |  |
| COC(=O)C(C)c1ccc2cc(OCC[C@@H]3O[C@@H](C)[C@@H](OC(C)=O)[C@@H](OC(C)=O)[C@@H]3OC(C)=O)ccc2c1 (stereo partly drawn) [Compound 60] |  |  | > 4 mM | 4 mM | > 2 mM |  |  |  |
| CC(C(=O)OCC1CO1)c1ccc2cc(OCC(O)CO)ccc2c1 (stereo not drawn) [Compound 64] |  |  | > 4 mM | > 4 mM | > 4 mM |  |  |  |
| C[C@@H]1O[C@@H](CCOc2ccc(C(=O)O)cc2)[C@@H](O)[C@H](O)[C@@H]1O [Compound 67, 1-Deoxy-1-α-(p-Carboxy-Phenoxyethyl)-L-Fucose] |  |  | < 0.5 mM | > 2 mM | < 0.5 mM |  |  |  |
| C[C@@H]1O[C@@H](CCOc2ccccc2C(=O)O)[C@@H](O)[C@H](O)[C@@H]1O [Compound 68, 1-Deoxy-1-α-(o-Carboxy-Phenoxyethyl)-L-Fucose] |  |  | ~4 mM | > 4 mM | < 0.5 mM |  |  |  |
| C[C@@H]1O[C@@H](CCOc2cccc(C(=O)O)c2)[C@@H](O)[C@H](O)[C@@H]1O [Compound 69, 1-Deoxy-1-α-(m-Carboxy-Phenoxyethyl)-L-Fucose] |  |  | > 4 mM | > 4 mM | > 4 mM |  |  |  |
| C[C@@H]1O[C@@H](CCc2cccc(C(=O)NC(Cc3ccccc3)C(=O)O)c2)[C@@H](O)[C@H](O)[C@@H]1O (stereo partly drawn) [Compound 74, 1-Deoxy-1-α-(m-Carboxy-Phenylethyl)-L-Fucose-Phenylalanine Amide] |  |  | > 4 mM | > 4 mM | > 4 mM |  |  |  |
| C[C@@H]1O[C@@H](CCc2ccc(C(=O)NC(Cc3ccccc3)C(=O)O)cc2)[C@@H](O)[C@H](O)[C@@H]1O (stereo partly drawn) [Compound 75, 1-Deoxy-1-α-(p-Carboxy-Phenylethyl)-L-Fucose-Phenylalanine Amide] |  |  | > 4 mM | > 4 mM | 4 mM |  |  |  |
| C[C@@H]1O[C@@H](CCc2ccccc2C(=O)NC(Cc2ccccc2)C(=O)O)[C@@H](O)[C@H](O)[C@@H]1O (stereo partly drawn) [Compound 76, 1-Deoxy-1-α-(o-Carboxy-Phenylethyl)-L-Fucose-Phenylalanine Amide] |  |  | > 4 mM | > 4 mM | > 4 mM |  |  |  |
| C[C@@H]1O[C@@H](OCCCCCCOS(=O)(=O)O)[C@@H](O)[C@H](O)[C@@H]1O [Compound 77, 6-O-sulfo-hexanyl-α-L-fucopyranoside] |  |  | 2 to 3 mM | 2 to 3 mM | ~0.5 mM | 50% | 50% | 60% |
